≈ marks a conversion by molar mass, not a printed value. Read-outs that look alike come from different tables or passages of the source.
Experiments:
[1] = tested on: human leukaemia cells (THP-1); assay: Resazurin cytotoxicity assay, THP-1
Text: (§1) To identify marine samples with activity against MRSA, 1434 compounds from the AIMS Bioresources Library (provided by the Queensland Compound Library, Brisbane, Australia, now called Compounds Australia) were screened in a resazurin cell viability assay.
Toxicity of AIMS Extract Library. Human alveolar epithelial cells (A549), Madin-Darby canine kidney epithelial cells (MDCK), human leukaemia cells (THP-1), human hepatocellular carcinoma cells (Hep-G2) and human embryonic kidney cells 293 (HEK293) were grown and differentiated in complete RPMI (Roswell Park Memorial Institute Medium) and DMEM (Dulbecco’s Modified Eagle’s medium) tissue culture media (RPMIc and DMEMc, from the Thermo Fisher Scientific, Waltham, MA, USA) by adding 10% FBS, 200 µM L-glutamine and 1 mM HEPES buffer solution. To determine toxicity of the AIMS extract library, 2 × 10^5 of each cell type were added to a 96-well plate and left for 48 h in a humidified 5% CO2 incubator at 37 °C to adhere. […] Then, resazurin (10 μL of 0.05% w/v) was added and after 4 h, fluorescence measured as described previously. The cell viability was calculated as percentage fluorescence relative to untreated cells.

E. coli EC958 = assay: Resazurin bacterial inhibition assay (MIC), E. coli; assay type: cell-based; conditions: read-out: Minimum Inhibitory Concentration E. coli
M. tuberculosis H37Rv = assay: Resazurin bacterial inhibition assay (MIC), M. tuberculosis; assay type: cell-based; conditions: Mycobacterium tuberculosis, 168 h, commercial compounds, 7 days, read-out: Minimum Inhibitory Concentration M. tuberculosis H37Rv
[2] = tested on: human hepatocellular carcinoma cells (Hep-G2); assay: Resazurin cytotoxicity assay, HepG2
Text: as §1
(§2) Toxicity of AIMS Extract Library. Human alveolar epithelial cells (A549), Madin-Darby canine kidney epithelial cells (MDCK), human leukaemia cells (THP-1), human hepatocellular carcinoma cells (Hep-G2) and human embryonic kidney cells 293 (HEK293) were grown and differentiated in complete RPMI (Roswell Park Memorial Institute Medium) and DMEM (Dulbecco’s Modified Eagle’s medium) tissue culture media (RPMIc and DMEMc, from the Thermo Fisher Scientific, Waltham, MA, USA) by adding 10% FBS, 200 µM L-glutamine and 1 mM HEPES buffer solution. To determine toxicity of the AIMS extract library, 2 × 10^5 of each cell type were added to a 96-well plate and left for 48 h in a humidified 5% CO2 incubator at 37 °C to adhere. Extract samples at a final concentration of 0.5 mg mL^−1 were added to the wells, then the plates incubated for 4 more days in a humidified 5% CO2 incubator at 37 °C. Then, resazurin (10 μL of 0.05% w/v) was added and after 4 h, fluorescence measured as described previously. The cell viability was calculated as percentage fluorescence relative to untreated cells.

[3] = tested on: Human alveolar epithelial cells (A549); assay: Resazurin cytotoxicity assay, A549
Text: as §1, §2

[4] = tested on: methicillin-resistant Staphylococcus aureus (MRSA); assay: Resazurin bacterial inhibition assay (MIC), MRSA; assay type: cell-based; conditions: 18 h, read-out: Minimum Inhibitory Concentration MRSA
P. aeruginosa PAO1 = assay: Resazurin bacterial inhibition assay (MIC), P. aeruginosa; assay type: cell-based; conditions: Pseudomonas aeruginosa, read-out: Minimum Inhibitory Concentration P. aeruginosa
[5] = tested on: human embryonic kidney cells 293 (HEK293); assay: Resazurin cytotoxicity assay, HEK 293
Text: as §1, §2

[6] = commercial compounds, unit from Table 8 head
[7] = Escherichia coli, EC958, commercial compounds, 18 h, resazurin
[8] = Staphylococcus aureus, MRSA, commercial compounds, resazurin
[9] = PAO1, commercial compounds, 18 h, resazurin
[10] = commercial compounds, unit from Table 8 head, listed as 1,10 phenanthroline

Compound | Minimum Toxicity Concentration THP-1 [1, 6] [µM] | MIC (E. coli EC958; [7]) [µM] | MIC (M. tuberculosis H37Rv) [µM] | Minimum Toxicity Concentration HepG2 [2, 6] [µM] | Minimum Toxicity Concentration A549 [3, 6] [µM] | MIC [4, 8] [µM] | MIC (P. aeruginosa PAO1; [9]) [µM] | Minimum Toxicity Concentration HEK 293 [5, 6] [µM] | Minimum Toxicity Concentration THP-1 ([1]; human, 4 days) [µM] | Minimum Toxicity Concentration HepG2 ([2]; human, 4 days) [µM] | Minimum Toxicity Concentration A549 ([3]; human, 4 days) [µM] | MIC ([4]; commercial compounds, resazurin) [µM] | Minimum Toxicity Concentration HEK 293 ([5]; human, 4 days) [µM] | Minimum Toxicity Concentration THP-1 [1, 10] [µM] | Minimum Toxicity Concentration A549 [3, 10] [µM] | Minimum Toxicity Concentration HEK 293 [5, 10] [µM] | MIC (E. coli EC958; commercial compounds, 18 h, resazurin) [µM] | MIC (E. coli EC958; Escherichia coli, EC958, 18 h) [µM] | MIC ([4]; Staphylococcus aureus, MRSA) [µM] | MIC (P. aeruginosa PAO1; PAO1, 18 h) [µM]
c1cnc2c(c1)ccc1ncccc12 [1,7-phenanthroline] | >100 | 25 (≈ 4.51 µg/mL) | > 100 | >100 | >100 | 25 (≈ 4.51 µg/mL) | 2.5 (≈ 0.451 µg/mL) | >100 |  |  |  |  |  |  |  |  |  |  |  | 
O=C1C(=O)c2cccnc2-c2ncccc21 [1,10-Phenanthroline-5,6-dione] |  | 0.04 (≈ 0.00841 µg/mL) | 0.1 (≈ 0.021 µg/mL) |  |  | 0.04 (≈ 0.00841 µg/mL) | 0.04 (≈ 0.00841 µg/mL) |  | 0.1 | 0.1 | 0.1 | 0.04 (≈ 0.00841 µg/mL) | 0.1 |  |  |  |  |  |  | 
c1cnc2c(c1)ccc1cccnc12 [1,10-phenanthroline] | 0.1 | 50 (≈ 9.01 µg/mL) | 0.1 (≈ 0.018 µg/mL) | 0.1 | 3 | > 100 | 0.3 (≈ 0.0541 µg/mL) | 50 |  |  |  |  |  | 3 | 50 | 0.1 |  |  |  | 
c1ccc(-c2ccccn2)nc1 [2,2′-Bipyridine] | 50 | > 100 | 0.1 (≈ 0.0156 µg/mL) | 3 | >100 | > 100 | > 100 | 3 |  |  |  |  |  |  |  |  |  |  |  | 
Cc1cc(-c2ccccc2)c2ccc3c(-c4ccccc4)cc(C)nc3c2n1 [2,9-Dimethyl-4,7-diphenyl-1,10-phenanthroline] |  | 0.78 (≈ 0.281 µg/mL) | 50 (≈ 18 µg/mL) |  |  | 25 (≈ 9.01 µg/mL) | 50 (≈ 18 µg/mL) |  | >100 | 0.1 | >100 |  | 0.1 |  |  |  |  |  |  | 
Cc1cnc2c(ccc3c(C)c(C)cnc32)c1C [3,4,7,8-Tetramethyl-1,10-phenanthroline] | 0.1 | 0.3 (≈ 0.0709 µg/mL) | 0.1 (≈ 0.0236 µg/mL) | 0.1 | 0.1 | 0.3 (≈ 0.0709 µg/mL) | 0.3 (≈ 0.0709 µg/mL) | 0.1 |  |  |  |  |  |  |  |  |  |  |  | 
Cc1ccnc2c1ccc1c(C)ccnc12 [4,7-Dimethyl-1,10-Phenanthrolin] |  | 0.3 (≈ 0.0625 µg/mL) | 0.1 (≈ 0.0208 µg/mL) |  |  | 0.3 (≈ 0.0625 µg/mL) | 0.1 (≈ 0.0208 µg/mL) |  | 0.1 | 0.1 | 0.1 |  | 0.1 |  |  |  |  |  |  | 
c1cnc2ccc3ncccc3c2c1 [4,7-phenanthroline] | >100 | 1.5 (≈ 0.27 µg/mL) | 2.5 (≈ 0.451 µg/mL) | >100 | >100 | 1.5 (≈ 0.27 µg/mL) | 2.5 (≈ 0.451 µg/mL) | >100 |  |  |  |  |  |  |  |  |  |  |  | 
Cc1c(C)c2cccnc2c2ncccc12 [5,6-Dimethyl-1,10-phenanthroline] | 0.1 | 0.78 (≈ 0.162 µg/mL) | 0.1 (≈ 0.0208 µg/mL) | 0.1 | 0.1 | 0.3 (≈ 0.0625 µg/mL) | > 100 | 0.1 |  |  |  |  |  |  |  |  |  |  |  | 
O=[N+]([O-])c1cc2cccnc2c2ncccc12 [5-Nitro-1,10-phenanthroline] |  | 0.78 (≈ 0.176 µg/mL) | 0.1 (≈ 0.0225 µg/mL) |  |  | 0.09 (≈ 0.0203 µg/mL) | > 100 |  | 0.1 | 0.1 | 12 |  | 0.1 |  |  |  |  |  |  | 
c1ccc(-c2ccnc3c2ccc2c(-c4ccccc4)ccnc23)cc1 [Bathophenanthroline] |  | 0.019 (≈ 0.00632 µg/mL) | 0.01 (≈ 0.00332 µg/mL) |  |  | 0.09 (≈ 0.0299 µg/mL) | 0.03 (≈ 0.00997 µg/mL) |  | 13 | 1.5 | 3 |  | 25 |  |  |  | 0.019 (≈ 0.00632 µg/mL) |  |  | 
NCc1ccccc1 [Benzylamine] |  | > 100 | > 100 |  |  | > 100 | > 100 |  | >100 | >100 | >100 |  | >100 |  |  |  |  |  |  | 
c1ccc(CNCc2ccccc2)cc1 [Dibenzylamine] |  | > 100 | > 100 |  |  | > 100 | 12.5 (≈ 2.47 µg/mL) |  | >100 | >100 | >100 |  | >100 |  |  |  |  |  |  | 
C1CCC(NC2CCCCC2)CC1 [Dicyclohexylamine] | >100 | > 100 | > 100 | >100 | >100 | > 100 | 12.5 (≈ 2.27 µg/mL) | >100 |  |  |  |  |  |  |  |  |  |  |  | 
CCCCCCCCNCCCCCCCC [Dioctylamine] | >100 | 6.2 (≈ 1.5 µg/mL) | > 100 | >100 | >100 | 6.2 (≈ 1.5 µg/mL) | 3 (≈ 0.724 µg/mL) | >100 |  |  |  |  |  |  |  |  |  |  |  | 
c1ccc2cnccc2c1 [Isoquinoline] |  | > 100 | 0.1 (≈ 0.0129 µg/mL) |  |  | > 100 | > 100 |  |  | 3 |  |  |  |  |  |  |  |  |  | 
Cc1ccc2ccc3ccc(C)nc3c2n1 [Neocuproine hemihydrate] | 12 | 0.3 | 0.1 | 0.1 | 6.2 | 0.09 | 0.04 | 0.1 |  |  |  |  |  |  |  |  |  |  |  | 
c1ccc2ncccc2c1 [Quinoline] |  | > 100 | 0.1 (≈ 0.0129 µg/mL) |  |  | > 100 | > 100 |  |  | 3 | 50 |  |  |  |  |  |  |  |  | 
c1ccc(CN(Cc2ccccc2)Cc2ccccc2)cc1 [Tribenzylamine] | >100 | > 100 | > 100 | >100 | >100 | > 100 | 6.5 (≈ 1.87 µg/mL) | >100 |  |  |  |  |  |  |  |  |  |  |  | 
CCCCN(CCCC)CCCC [Tributylamine] | >100 |  | > 100 | >100 | >100 |  |  | >100 |  |  |  |  |  |  |  |  |  | > 100 | > 100 | 50 (≈ 9.27 µg/mL)
CCN(CC)CC [Triethylamine] |  | > 100 | > 100 |  |  | > 100 | > 100 |  | >100 | >100 | >100 |  | >100 |  |  |  |  |  |  | 
CCCCCCCCN(CCCCCCCC)CCCCCCCC [Trioctylamine] | 3.1 | 25 (≈ 8.84 µg/mL) | 0.02 (≈ 0.00707 µg/mL) | >100 | 50 | 12.5 (≈ 4.42 µg/mL) | 25 (≈ 8.84 µg/mL) | 6 |  |  |  |  |  |  |  |  |  |  |  | 

Reference: publication PMC8004798, “Identification of Bioactive Compounds from Marine Natural Products and Exploration of Structure-Activity Relationships (SAR)” (Antibiotics, 2021)
